The record followed here is patent publication US11833160B2, “Ursodeoxycholic acid derivatives as HDAC inhibitors for the treatment of polycystic diseases” (UNIVERSIDAD DEL PAIS VASCO/EUSKAL HERRIKO UNIBERTSITATEA, priority 2017, dated 2023).

One test has as its target T1, human HDAC1 (Homo sapiens, UniProt Q13547).
T1 construct: GST (C); purchased BioMol SE-456; host or cells: baculovirus / Sf9 cells
Briefly: HDAC1 enzymatic activity assay (fluorogenic peptide). The following applies: 10-dose, 3-fold serial dilution, triplicate. It counts as biochemical. The procedure:
(§1) Peptide substrates: all HDAC assays were performed using acetylated peptide substrates labeled with 7-amino-4-methylcoumarin (AMC): • Substrate for isoforms HDAC1, 2, 3, 6, 10, 11, and HeLa nuclear extract assays: acetylated fluorogenic peptide from p53 residues 379-382 (RHKKAc). • Substrate for isoforms HDAC4, 5, 7, 9: fluorogenic Boc-L-Lys (s-trifluoroacetyl)-AMC. • Substrate for HDAC8 assays: acetylated fluorogenic peptide from p53 residues 379-382 (RHKAcKAc).
(§2) 50 μl of peptide substrate (see “peptide substrates” section above) and an optimal concentration of the corresponding enzyme (see “enzymes” section above) in the assay buffer at a final DMSO concentration of 1% were incubated in the presence of gradient concentrations of inhibitors (10-dose IC50 mode with 3-fold serial dilution) at 30° C. for 2 hours. The reactions were carried out in a 96-well microplate for fluorometry in a 50 μl reaction volume. After the deacetylation reaction, Fluor-de-Lys-Developer (BioMol Cat. #KI-105) was added to each well to digest the deacetylated substrate, thereby producing the fluorescent signal. The reaction was carried out for 45 minutes at 30° C. with 5% CO2; the fluorescent signal was then measured using an excitation wavelength of 360 nm and an emission wavelength of 460 nm in a microplate-reading fluorometer (GeminiXS, Molecular Devices, Sunnyvale, CA). A curve of deacetylated standard (Biomol, Cat. #KI-142; made from 100 μM with 1:2 dilution and 10 doses, 6 μl) allowed the conversion of the fluorescent signal into micromoles of deacetylated product. All experiments were performed in triplicate. The IC50s were calculated by fitting the experimental data to dose-response curve. DMSO was used as negative control; Trichostatin A (Biomol Cat. #GR-309) was used as positive control inhibitor.
(§3) Enzymatic activity assays were carried out in 11 HDAC enzymes, including HDAC6.

For the next test, the target named is T2, human HDAC2 (Homo sapiens, UniProt Q92769).
T2 construct: His (C); purchased BioMol SE-500; host or cells: baculovirus / Sf9 cells
T2 sequence (Q92769 whole entry): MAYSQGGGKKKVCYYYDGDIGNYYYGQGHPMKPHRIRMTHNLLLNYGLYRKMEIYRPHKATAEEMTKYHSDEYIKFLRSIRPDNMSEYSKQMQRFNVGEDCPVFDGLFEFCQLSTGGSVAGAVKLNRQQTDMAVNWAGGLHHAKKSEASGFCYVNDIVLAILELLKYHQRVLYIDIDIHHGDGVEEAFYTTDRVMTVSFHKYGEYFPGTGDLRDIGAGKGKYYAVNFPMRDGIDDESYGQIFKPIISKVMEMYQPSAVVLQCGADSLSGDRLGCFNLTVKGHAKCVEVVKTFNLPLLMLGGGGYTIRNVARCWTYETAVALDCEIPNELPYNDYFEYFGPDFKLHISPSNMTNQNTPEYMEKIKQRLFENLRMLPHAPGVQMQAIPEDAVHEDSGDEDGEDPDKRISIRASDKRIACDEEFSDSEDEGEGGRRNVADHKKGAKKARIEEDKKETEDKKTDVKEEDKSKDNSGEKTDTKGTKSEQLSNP
Briefly: HDAC2 enzymatic activity assay (fluorogenic peptide). It counts as biochemical. As to conditions: 10-dose, 3-fold serial dilution, triplicate. The procedure:
as §1, §2, §3

The target in the next test is T3, human HDAC3/NcoR2 (Homo sapiens, UniProt O15379).
T3 construct: human HDAC3 complex, full length with His C-terminal tag, MW=49.7 kDa; His (C); purchased BioMol SE-507; host or cells: baculovirus expression system
T3 sequence (O15379 whole entry): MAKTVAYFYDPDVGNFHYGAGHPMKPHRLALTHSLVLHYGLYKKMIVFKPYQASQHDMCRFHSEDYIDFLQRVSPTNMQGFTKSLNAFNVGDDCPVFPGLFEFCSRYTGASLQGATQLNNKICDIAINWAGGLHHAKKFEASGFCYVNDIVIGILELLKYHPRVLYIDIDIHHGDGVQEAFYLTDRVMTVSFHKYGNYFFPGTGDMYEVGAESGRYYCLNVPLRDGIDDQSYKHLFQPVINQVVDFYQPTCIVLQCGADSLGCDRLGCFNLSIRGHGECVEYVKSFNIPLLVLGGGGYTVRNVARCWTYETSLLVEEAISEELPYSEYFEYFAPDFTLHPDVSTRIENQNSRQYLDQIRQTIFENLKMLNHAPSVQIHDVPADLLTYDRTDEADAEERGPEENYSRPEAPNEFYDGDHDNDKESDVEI
T3 sequence (Q9Y618 395-489 partner limits assumed): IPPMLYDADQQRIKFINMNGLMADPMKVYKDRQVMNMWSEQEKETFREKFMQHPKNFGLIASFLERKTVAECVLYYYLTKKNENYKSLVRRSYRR
Briefly: HDAC3 enzymatic activity assay (fluorogenic peptide). It counts as biochemical. As to conditions: 10-dose, 3-fold serial dilution, triplicate. The procedure:
as §1
(§4) 50 μl of peptide substrate (see “peptide substrates” section above) and an optimal concentration of the corresponding enzyme (see “enzymes” section above) in the assay buffer at a final DMSO concentration of 1% were incubated in the presence of gradient concentrations of inhibitors (10-dose IC50 mode with 3-fold serial dilution) at 30° C. for 2 hours. The reactions were carried out in a 96-well microplate for fluorometry in a 50 μl reaction volume. After the deacetylation reaction, Fluor-de-Lys-Developer (BioMol Cat. #KI-105) was added to each well to digest the deacetylated substrate, thereby producing the fluorescent signal. The reaction was carried out for 45 minutes at 30° C. with 5% CO2; the fluorescent signal was then measured using an excitation wavelength of 360 nm and an emission wavelength of 460 nm in a microplate-reading fluorometer (GeminiXS, Molecular Devices, Sunnyvale, CA). […]

Another test has as its target T4, human HDAC7 (Homo sapiens, UniProt Q8WUI4).
T4 construct: amino acids 518 end with GST N-terminal tag, MW=78 kDa; GST (N); purchased BioMol, Hamburg, Germany; host or cells: baculovirus expression system
T4 sequence (Q8WUI4 479-952 limits assumed): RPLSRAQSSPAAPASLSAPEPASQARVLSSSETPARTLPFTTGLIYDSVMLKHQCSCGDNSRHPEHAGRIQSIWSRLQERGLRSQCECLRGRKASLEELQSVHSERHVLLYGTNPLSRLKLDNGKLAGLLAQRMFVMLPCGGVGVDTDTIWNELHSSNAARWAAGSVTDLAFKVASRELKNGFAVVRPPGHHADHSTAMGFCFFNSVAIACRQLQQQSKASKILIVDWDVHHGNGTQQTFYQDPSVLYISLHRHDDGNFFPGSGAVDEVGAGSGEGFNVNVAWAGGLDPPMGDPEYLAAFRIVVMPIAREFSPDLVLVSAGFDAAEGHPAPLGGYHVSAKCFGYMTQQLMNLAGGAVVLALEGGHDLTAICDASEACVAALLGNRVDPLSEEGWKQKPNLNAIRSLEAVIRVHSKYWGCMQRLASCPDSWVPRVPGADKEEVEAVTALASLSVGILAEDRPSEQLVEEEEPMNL
Briefly: HDAC7 enzymatic activity assay (fluorogenic peptide). It counts as biochemical. The following applies: 10-dose, 3-fold serial dilution, triplicate. The procedure: as §1, §2, §3

The target in another test is human HDAC9 (Homo sapiens, UniProt Q9UKV0). Briefly: HDAC9 enzymatic activity assay (fluorogenic peptide). It counts as biochemical. As to conditions: 10-dose, 3-fold serial dilution, triplicate. The procedure: as §1, §4
Sequence of human HDAC9 (Q9UKV0 604-1066 isoform Q9UKV0-5): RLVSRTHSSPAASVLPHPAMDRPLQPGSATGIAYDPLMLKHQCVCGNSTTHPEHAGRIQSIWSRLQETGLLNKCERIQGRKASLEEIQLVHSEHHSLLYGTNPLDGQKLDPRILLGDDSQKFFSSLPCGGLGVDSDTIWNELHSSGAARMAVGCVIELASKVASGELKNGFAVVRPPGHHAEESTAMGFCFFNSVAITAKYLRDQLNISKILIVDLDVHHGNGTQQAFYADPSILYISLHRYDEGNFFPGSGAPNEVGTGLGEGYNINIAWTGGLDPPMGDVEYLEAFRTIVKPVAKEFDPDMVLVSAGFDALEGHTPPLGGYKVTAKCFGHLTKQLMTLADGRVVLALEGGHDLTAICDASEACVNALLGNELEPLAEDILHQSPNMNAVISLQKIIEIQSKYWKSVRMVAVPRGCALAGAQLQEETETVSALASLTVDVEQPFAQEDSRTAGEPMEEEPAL
In a further test the target is T5, human HDAC10 (Homo sapiens, UniProt Q969S8).
T5 sequence (Q969S8 1-631): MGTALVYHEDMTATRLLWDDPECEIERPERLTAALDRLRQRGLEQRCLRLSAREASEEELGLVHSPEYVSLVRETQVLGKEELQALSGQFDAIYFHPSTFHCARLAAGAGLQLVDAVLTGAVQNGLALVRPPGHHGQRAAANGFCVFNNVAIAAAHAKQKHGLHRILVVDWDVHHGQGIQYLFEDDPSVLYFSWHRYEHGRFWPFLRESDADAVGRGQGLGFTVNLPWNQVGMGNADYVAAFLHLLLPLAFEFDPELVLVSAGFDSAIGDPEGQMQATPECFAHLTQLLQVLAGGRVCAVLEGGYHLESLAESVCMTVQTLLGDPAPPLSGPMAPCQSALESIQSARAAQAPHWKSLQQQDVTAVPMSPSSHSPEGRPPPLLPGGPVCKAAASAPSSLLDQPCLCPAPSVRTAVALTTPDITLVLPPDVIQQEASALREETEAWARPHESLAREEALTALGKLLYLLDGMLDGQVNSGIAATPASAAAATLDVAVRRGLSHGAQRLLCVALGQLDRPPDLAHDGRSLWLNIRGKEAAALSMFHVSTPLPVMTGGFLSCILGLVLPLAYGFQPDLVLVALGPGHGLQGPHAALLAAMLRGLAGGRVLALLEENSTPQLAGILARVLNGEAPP
Briefly: HDAC10 enzymatic activity assay (fluorogenic peptide). As to conditions: 10-dose, 3-fold serial dilution, triplicate. It counts as biochemical. The procedure:
as §1, §4

The next test has as its target T6, human HDAC11 (Homo sapiens, UniProt Q96DB2).
T6 construct: GST (N); purchased BioMol SE-560; host or cells: baculovirus expression system
T6 sequence (Q96DB2 1-347): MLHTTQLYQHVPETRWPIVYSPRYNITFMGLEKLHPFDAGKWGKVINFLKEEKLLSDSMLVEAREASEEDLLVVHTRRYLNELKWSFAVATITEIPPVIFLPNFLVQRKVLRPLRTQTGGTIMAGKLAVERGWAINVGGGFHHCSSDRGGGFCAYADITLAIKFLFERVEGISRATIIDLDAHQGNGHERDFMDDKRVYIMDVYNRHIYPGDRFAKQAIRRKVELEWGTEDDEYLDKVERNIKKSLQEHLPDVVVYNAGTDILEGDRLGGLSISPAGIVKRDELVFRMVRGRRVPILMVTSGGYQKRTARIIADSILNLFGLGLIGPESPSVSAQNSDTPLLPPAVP
Briefly: HDAC11 enzymatic activity assay (fluorogenic peptide). It counts as biochemical. As to conditions: 10-dose, 3-fold serial dilution, triplicate. The procedure: as §1, §4

The subject of the next test is HDAC enzymes. Briefly: Enzymatic activity assays in 11 HDAC enzymes (statements on the panel). The following applies: HDAC enzymes other than HDAC6. It counts as biochemical, human. The procedure: as §1, §2, §3

T1 sequence (Q13547 whole entry): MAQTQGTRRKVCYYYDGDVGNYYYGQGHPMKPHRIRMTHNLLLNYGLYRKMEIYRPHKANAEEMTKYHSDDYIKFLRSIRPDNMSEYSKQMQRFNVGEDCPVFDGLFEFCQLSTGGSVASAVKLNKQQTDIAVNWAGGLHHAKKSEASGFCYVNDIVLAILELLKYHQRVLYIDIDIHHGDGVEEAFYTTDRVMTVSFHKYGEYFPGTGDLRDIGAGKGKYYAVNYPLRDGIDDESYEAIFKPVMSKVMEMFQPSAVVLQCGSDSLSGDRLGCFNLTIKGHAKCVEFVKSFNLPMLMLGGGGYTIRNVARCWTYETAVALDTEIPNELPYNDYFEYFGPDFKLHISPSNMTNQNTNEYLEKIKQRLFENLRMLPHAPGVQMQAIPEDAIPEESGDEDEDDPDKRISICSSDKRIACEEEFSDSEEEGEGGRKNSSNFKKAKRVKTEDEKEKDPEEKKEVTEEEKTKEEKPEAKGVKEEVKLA

As to `C[C@H](CCC(=O)NCc1ccc(C(=O)NO)cc1)[C@H]1CC[C@H]2[C@@H]3[C@@H](O)C[C@@H]4C[C@H](O)CC[C@]4(C)[C@H]3CC[C@]12C` [Compound Ia], the IC50 was determined as 10.1 µM against human HDAC1; 18.8 µM against human HDAC2; 8.37 µM against human HDAC3/NcoR2; 7.47 µM at human HDAC7; 13.4 µM on human HDAC9; 24.5 µM on human HDAC10. This molecule registered an IC50 at human HDAC11 of 2.33 µM. Besides, the “inhibitory capacity with respect to the rest of the HDAC enzymes” value with HDAC enzymes is recorded as “micromolar range”.

Take `C[C@H](CCC(=O)NCC(=O)NCc1ccc(C(=O)NO)cc1)[C@H]1CC[C@H]2[C@@H]3[C@@H](O)C[C@@H]4C[C@H](O)CC[C@]4(C)[C@H]3CC[C@]12C` [Ib, 4-((2-((R)-4 ((3R,5S,7S,8R,9S,10S,13R,14S,17R)-3,7-dihydroxy-10,13-dimethylhexadecahydro-1H-cyclopenta[a]phenanthren-17-yl)pentanamide)acetamido)methyl)-N-hydroxybenzamide]: the 50% inhibitory concentration (IC50) on human HDAC1 was found to be 9.01 µM; against human HDAC2, 13.2 µM; at human HDAC3/NcoR2, 9.99 µM; at human HDAC7, 17.6 µM; against human HDAC9, 11.6 µM; against human HDAC10, 21.8 µM. At human HDAC11, this molecule displayed an IC50 of 2.56 µM. Besides, the “inhibitory capacity with respect to the rest of the HDAC enzymes” value in the test with HDAC enzymes was “micromolar range”.

In general, IC50 refers to the concentration that inhibits the measured activity by half.
